pKi: −log10 of the molar value.
Assays:
human 5-HT1A receptors = biological target: T1, human 5-HT1A receptors (Homo sapiens, UniProt P08908); assay: displacement of [3H] 8-OH-DPAT from the 5-HT1A serotonin receptor; type: binding; conditions: CHO cells stably transfected with human 5-HT1A receptors
T1 construct: expressed in transfected cells; host or cells: CHO cells
T1 sequence (P08908 1-422): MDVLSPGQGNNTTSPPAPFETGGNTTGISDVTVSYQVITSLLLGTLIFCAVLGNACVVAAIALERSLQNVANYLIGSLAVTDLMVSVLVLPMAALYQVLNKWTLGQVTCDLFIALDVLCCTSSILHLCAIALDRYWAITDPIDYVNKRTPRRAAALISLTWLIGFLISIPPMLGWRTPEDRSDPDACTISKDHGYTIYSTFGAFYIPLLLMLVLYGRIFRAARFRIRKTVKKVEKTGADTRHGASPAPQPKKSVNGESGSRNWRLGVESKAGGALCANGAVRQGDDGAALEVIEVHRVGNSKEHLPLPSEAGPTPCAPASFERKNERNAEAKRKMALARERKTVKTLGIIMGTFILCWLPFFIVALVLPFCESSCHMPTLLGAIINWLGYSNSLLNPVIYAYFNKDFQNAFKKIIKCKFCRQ

5-HT transporter = 5-HT transporter (Rattus norvegicus, UniProt P31652); assay: Rat Brain 3H-Paroxetine Binding Assay (RB 5HT Transporter); conditions: rat frontal cortical membranes; 3H-paroxetine 0.1 nM, 60 min, 25° C.
From the text: Rat Brain ^3H-Paroxetine Binding Assay (RB 5HT Transporter):
This assay was used to determine a compound's affinity of the 5-HT transporter.
All reactions were terminated by the addition of ice cold Tris buffer followed by rapid filtration using a Tom Tech filtration device to separate bound from free ^3H-paroxetine.

5-HT transporter, sequence (P31652 whole entry): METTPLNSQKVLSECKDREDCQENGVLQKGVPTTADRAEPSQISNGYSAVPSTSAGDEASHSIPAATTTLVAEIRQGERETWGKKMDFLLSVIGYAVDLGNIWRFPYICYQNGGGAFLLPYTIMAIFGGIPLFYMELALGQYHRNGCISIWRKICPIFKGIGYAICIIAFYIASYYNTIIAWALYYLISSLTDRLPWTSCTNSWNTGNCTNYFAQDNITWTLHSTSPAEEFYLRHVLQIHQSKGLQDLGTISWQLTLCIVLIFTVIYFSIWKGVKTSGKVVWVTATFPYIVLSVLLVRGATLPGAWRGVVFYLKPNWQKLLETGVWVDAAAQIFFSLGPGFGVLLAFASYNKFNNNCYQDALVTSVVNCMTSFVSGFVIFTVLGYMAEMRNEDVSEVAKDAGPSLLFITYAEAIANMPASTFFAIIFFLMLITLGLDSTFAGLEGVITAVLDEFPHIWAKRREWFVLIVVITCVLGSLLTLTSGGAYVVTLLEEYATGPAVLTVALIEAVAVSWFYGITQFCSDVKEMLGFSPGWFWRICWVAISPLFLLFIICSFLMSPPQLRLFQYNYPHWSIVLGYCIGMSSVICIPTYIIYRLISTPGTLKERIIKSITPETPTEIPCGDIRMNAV

`Clc1cc(N2CCN([C@H]3CC[C@H](c4csc5ccccc54)CC3)CC2)c2ncccc2c1` [Compound 42, 8-{4-[4-trans(1-benzothien-3-yl)cyclohexyl]-1-piperazinyl}-6-chloroquinoline] showed a melting point of 143 to 144 °C, a pKi (human 5-HT1A receptors) of 6.85 and a pKi (5-HT transporter) of 6.80.

`COc1cccc2c1occ2[C@H]1CC[C@H](N2CCN(c3cccc4cccnc34)CC2)CC1` [Compound 62, 8-{4-[4-trans(7-methoxy-1-benzofuran-3-yl)cyclohexyl]-1-piperazinyl}quinoline] gave a melting point of 195 to 197 °C, a pKi (human 5-HT1A receptors) of 9.59 and a pKi (5-HT transporter) of 7.34.

In the case of `Fc1ccc2scc([C@H]3CC[C@@H](N4CCN(c5ccc(Cl)c6cccnc56)CC4)CC3)c2c1` [Compound 51, 5-chloro-8-{4-[4-cis(5-fluoro-1-benzothien-3-yl)cyclohexyl]piperazin-1-yl}quinoline], the melting point was 192 to 197 °C, the pKi (human 5-HT1A receptors) was 8.38 and the pKi (5-HT transporter) was 6.88.

Work on `COc1ccc2occ(CCN3CCN(c4cc(Cl)cc5cccnc45)CC3)c2c1` [Compound 22, 8-{4-[2-(5-methoxy-1-benzofuran-3-yl)ethyl]-1-piperazinyl}-6-chloro-quinoline] yielded a melting point of 72 °C, a pKi (human 5-HT1A receptors) of 8.57 and a pKi (5-HT transporter) of 8.70.

`COc1cccc2c1occ2[C@H]1CC[C@@H](N2CCN(c3cc(F)cc4cccnc34)CC2)CC1` [Compound 59, 6-fluoro-8-{4-[4-cis(7-methoxy-1-benzofuran-3-yl)cyclohexyl]-1-piperazinyl}quinoline] showed a melting point of 75 to 83 °C, a pKi (human 5-HT1A receptors) of 8.71 and a pKi (5-HT transporter) of 7.32.

`Fc1ccc(N2CCN([C@H]3CC[C@@H](c4coc5ccccc54)CC3)CC2)c2ncccc12` [Compound 53, 8-{4-[4-cis(1-benzofuran-3-yl)cyclohexyl]-1-piperazinyl}-5-fluoroquinoline] gave a melting point of 142 to 144 °C, a pKi (human 5-HT1A receptors) of 8.76 and a pKi (5-HT transporter) of 6.68.
